{"source": "paper PMC12804144", "about": "“Lipopeptide ligands captured by MHC class I molecules undergo dynamic conformational changes that affect their antigenic strength” (The Journal of Biological Chemistry, 2025)", "key": {"[1]": {"system": "SN45 TCR", "experiment": "Biolayer interferometry of SN45 TCR with lipopeptide-bound MHC class I complexes", "type": "binding, rhesus monkey", "source_text": "Cell-based analyses may be influenced by undefined factors related to the use of live cells and serum components. Therefore, we first sought to validate the separation of the two groups at the molecular level. To this end, we investigated the kinetics of TCR–lipopeptide interactions in biolayer interferometry experiments. […] All refolded complexes were purified by size-exclusion and anion-exchange chromatography, and nearly identical elution profiles were obtained for each lipopeptide sample. […]\nFigure 1 Biolayer interferometry analysis of interactions between the SN45 TCR and lipopeptide-bound Mamu-B∗05104 complexes. The molecular interaction kinetics of SN45 TCR and lipopeptide-bound Mamu-B∗05104 complexes were assessed using the Octet RED96 system, in which biotinylated SN45 TCR proteins were immobilized on streptavidin-coated sensors, and serially diluted Mamu-B∗05104 complexes were applied as analytes. […]\nBiomolecular interaction analyses were performed using the Octet RED96 system equipped with a streptavidin-conjugated biosensor (Sartorius), according to the manufacturer’s instructions. […] A shift in the interference pattern was monitored in real time during this period. […]"}, "[2]": {"system": "J.RT3/SN45 (SN45 TCR-reconstituted Jurkat T-cell line)", "settings": "J.RT3/SN45 responder T cells; cited from earlier work", "source_text": "J.RT3, a TCR-deficient Jurkat cell line, was transfected with SN45-derived TCRα and TCRβ complementary DNAs in a previous study. The SN45 TCR-reconstituted T-cell line (J.RT3/SN45) was used as responder T cells to compare antigenic activities among C14nef4-related analogs."}}}
{"substance": "C14-Gly1-Gly2-Ala3-Ile4-Ser5 [C14nef5, reference compound]", "values": [{"measurement": "binding to the SN45 TCR", "setting": "[1]; C14nef5-bound Mamu-B∗098 complex as analyte, negative control", "value": "failed to bind"}]}
{"substance": "C14-Gly1-Gly2-Ala3-Ile4 [C14nef4]", "values": [{"measurement": "antigenic group by biolayer interferometry (highly / poorly antigenic)", "setting": "[1]; lipopeptide-bound Mamu-B∗05104 complex as analyte on immobilized SN45 TCR", "value": "highly antigenic"}, {"measurement": "antigenic activity group (highly / poorly antigenic)", "setting": "[2]", "value": "highly antigenic"}]}
